In patent US20100099561A1, “HETEROBICYCLIC ALKYLTHIO-BRIDGED ISOXAZOLINES” (E.I. DU PONT DE NEMOURS AND COMPANY, priority 2008, published 2010):

Experiments:
Format in all cases: in vivo
[1] = tested on: large crabgrass (Digitaria sanguinalis); assay: Test A preemergence, large crabgrass; details: 0 to 100 scale (0 no effect, 100 complete control)
How it was run: (§1)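 Visual injury rating, 0 = no effect to 100 = complete control, made roughly ten days after treatment by comparison with untreated controls. Preemergence: directed soil spray onto freshly planted loam/sand. Postemergence: foliar application at one- to two-leaf stage, 2–10 cm height.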

[2] = tested on: giant foxtail (Setaria faberi); assay: Test A preemergence, giant foxtail; details: 0 to 100 scale (0 no effect, 100 complete control)
How it was run: as §1

[3] = tested on: morningglory (Ipomoea spp.); assay: Test A preemergence, morningglory; details: 0 to 100 scale (0 no effect, 100 complete control)
How it was run: as §1

[4] = tested on: pigweed (Amaranthus retroflexus); assay: Test A preemergence, pigweed; details: 0 to 100 scale (0 no effect, 100 complete control)
How it was run: as §1

[5] = tested on: velvetleaf (Abutilon theophrasti); assay: Test A preemergence, velvetleaf; details: 0 to 100 scale (0 no effect, 100 complete control)
How it was run: as §1

[6] = tested on: wheat (Triticum aestivum); assay: Test A preemergence, wheat; details: 0 to 100 scale (0 no effect, 100 complete control)
How it was run: as §1

[7] = tested on: large crabgrass (Digitaria sanguinalis); assay: Test A postemergence, large crabgrass; details: 0 to 100 scale (0 no effect, 100 complete control)
How it was run: as §1

[8] = tested on: giant foxtail (Setaria faberi); assay: Test A postemergence, giant foxtail; details: 0 to 100 scale (0 no effect, 100 complete control)
How it was run: as §1

[9] = tested on: pigweed (Amaranthus retroflexus); assay: Test A postemergence, pigweed; details: 0 to 100 scale (0 no effect, 100 complete control)
How it was run: as §1

[10] = tested on: velvetleaf (Abutilon theophrasti); assay: Test A postemergence, velvetleaf; details: 0 to 100 scale (0 no effect, 100 complete control)
How it was run: as §1

[11] = tested on: wheat (Triticum aestivum); assay: Test A postemergence, wheat; details: 0 to 100 scale (0 no effect, 100 complete control)
How it was run: as §1

[12] = tested on: wheat (Triticum aestivum); assay: Test B preemergence, wheat; details: Preemergence, scale 0 to 100
From the text: (§2) Seeds of plant species selected from blackgrass (Alopecurus myosuroides), downy bromegrass (Bromus tectorum), green foxtail (Setaria viridis), Italian ryegrass (Lolium multiflorum), wheat (Triticum aestivum), wild oat (Avena fatua), catchweed bedstraw (Galium aparine), bermudagrass (Cynodon dactylon), Surinam grass (Brachiaria decumbens), cocklebur (Xanthium strumarium), corn (Zea mays), large crabgrass (Digitaria sanguinalis), woolly cupgrass (Eriochloa villosa), giant foxtail (Setaria faberii), goosegrass (Eleusine indica), johnsongrass (Sorghum halepense), kochia (Kochia scoparia), lambsquarters (Chenopodium album), morningglory (Ipomoea coccinea), nightshade (eastern black nightshade, Solanum ptycanthum), yellow nutsedge (Cyperus esculentus), pigweed (Amaranthus retroflexus), ragweed (common ragweed, Ambrosia elatior), soybean (Glycine max), sunflower (common oilseed sunflower, Helianthus annuus), Russian thistle (Salsola kali), and velvetleaf (Abutilon theophrasti) were planted into a blend of loam soil and sand and treated preemergence with test compounds formulated in a non-phytotoxic solvent mixture which included a surfactant. Treated plants and controls were maintained in a greenhouse for 13 to 15 days, after which time all species were compared to controls and visually evaluated. Plant response ratings, summarized in Table B, are based on a scale of 0 to 100 where 0 is no effect and 100 is complete control. A dash (-) response means no test result.

wild oat (Avena fatua) = assay: Test B preemergence, wild oat; details: scale 0 to 100
From the text: as §2

corn (Zea mays) = assay: Test B preemergence, corn; details: scale 0 to 100
From the text: as §2

[13] = tested on: giant foxtail (Setaria faberii); assay: Test B preemergence, giant foxtail; details: scale 0 to 100
From the text: as §2

[14] = tested on: johnsongrass (Sorghum halepense); assay: Test B preemergence, johnsongrass; details: scale 0 to 100
From the text: as §2

[15] = tested on: morningglory (Ipomoea coccinea); assay: Test B preemergence, morningglory; details: scale 0 to 100
From the text: as §2

[16] = tested on: nightshade (eastern black nightshade, Solanum ptycanthum); assay: Test B preemergence, nightshade; details: scale 0 to 100
From the text: as §2

rice (Oryza sativa) = assay: Test B flooded paddy test, rice; details: Flood, scale 0 to 100
How it was run: (§3)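 Compounds were added directly to paddy water over 2-leaf-stage plants in pots flooded 3 cm above soil, water depth maintained. Visual injury scored against controls after 13 to 15 days in greenhouse, 0 (none) to 100 (complete control); dash indicates no result.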

[17] = tested on: ducksalad (Heteranthera limosa); assay: Test B flooded paddy test, ducksalad; details: Flood, scale 0 to 100
How it was run: as §3

CC1(C)CC(S(=O)(=O)Cc2c(C(F)(F)F)nc3n(c2=O)CCC3)=NO1 [Compound 11, 3-[[(4,5-dihydro-5,5-dimethyl-3-isoxazolyl)sulfonyl]methyl]-7,8-dihydro-2-(trifluoromethyl)pyrrolo[1,2-α]pyrimidin-4(6H)-one]
Plant response rating, Crabgrass, Large ([1]; 125 g ai/ha): 80 | Plant response rating, Crabgrass, Large ([1]; 500 g ai/ha): 90 | Plant response rating, Foxtail, Giant ([2]; 125 g ai/ha): 90 | Plant response rating, Foxtail, Giant ([2]; 500 g ai/ha): 100 | Plant response rating, Morningglory ([3]; 125 g ai/ha): 30 | Plant response rating, Morningglory ([3]; 500 g ai/ha): 90 | Plant response rating, Pigweed ([4]; 125 g ai/ha): 30 | Plant response rating, Pigweed ([4]; 500 g ai/ha): 100 | Plant response rating, Velvetleaf ([5]; 125 g ai/ha): 10 | Plant response rating, Velvetleaf ([5]; 500 g ai/ha): 60 | Plant response rating, Wheat ([6]; 125 g ai/ha): 0 | Plant response rating, Wheat ([6]; 500 g ai/ha): 60 | Plant response rating, Crabgrass, Large ([7]; 125 g ai/ha): 80 | Plant response rating, Crabgrass, Large ([7]; 500 g ai/ha): 90 | Plant response rating, Foxtail, Giant ([8]; 125 g ai/ha): 80 | Plant response rating, Foxtail, Giant ([8]; 500 g ai/ha): 80 | Plant response rating, Pigweed ([9]; 125 g ai/ha): 30 | Plant response rating, Pigweed ([9]; 500 g ai/ha): 70 | Plant response rating, Velvetleaf ([10]; 125 g ai/ha): 50 | Plant response rating, Velvetleaf ([10]; 500 g ai/ha): 80 | Plant response rating, Wheat ([11]; 125 g ai/ha): 20 | Plant response rating, Wheat ([11]; 500 g ai/ha): 60 | Plant response rating, Wheat ([12]; 16 g ai/ha): 0 | Plant response rating, Wheat ([12]; 31 g ai/ha): 0 | Plant response rating, Wheat ([12]; 62 g ai/ha): 20 | Plant response rating, Wheat ([12]; 125 g ai/ha): 50 | Plant response rating, Oat, Wild (wild oat (Avena fatua); 16 g ai/ha): 0 | Plant response rating, Oat, Wild (wild oat (Avena fatua); 31 g ai/ha): 10 | Plant response rating, Oat, Wild (wild oat (Avena fatua); 62 g ai/ha): 20 | Plant response rating, Oat, Wild (wild oat (Avena fatua); 125 g ai/ha): 65 | Plant response rating, Corn (corn (Zea mays); 16 g ai/ha): 0 | Plant response rating, Corn (corn (Zea mays); 31 g ai/ha): 0 | Plant response rating, Corn (corn (Zea mays); 62 g ai/ha): 0 | Plant response rating, Corn (corn (Zea mays); 125 g ai/ha): 0 | Plant response rating, Foxtail, Giant ([13]; 16 g ai/ha): 0 | Plant response rating, Foxtail, Giant ([13]; 31 g ai/ha): 40 | Plant response rating, Foxtail, Giant ([13]; 62 g ai/ha): 95 | Plant response rating, Foxtail, Giant ([13]; 125 g ai/ha): 100 | Plant response rating, Johnsongrass ([14]; 16 g ai/ha): 0 | Plant response rating, Johnsongrass ([14]; 31 g ai/ha): 60 | Plant response rating, Johnsongrass ([14]; 62 g ai/ha): 65 | Plant response rating, Johnsongrass ([14]; 125 g ai/ha): 90 | Plant response rating, Morningglory ([15]; 16 g ai/ha): 0 | Plant response rating, Morningglory ([15]; 31 g ai/ha): 65 | Plant response rating, Morningglory ([15]; 62 g ai/ha): 80 | Plant response rating, Morningglory ([15]; 125 g ai/ha): 95 | Plant response rating, Nightshade ([16]; 16 g ai/ha): 0 | Plant response rating, Nightshade ([16]; 31 g ai/ha): 60 | Plant response rating, Nightshade ([16]; 62 g ai/ha): 95 | Plant response rating, Nightshade ([16]; 125 g ai/ha): 98 | Plant response rating, Rice (rice (Oryza sativa); 31 g ai/ha): 0 | Plant response rating, Rice (rice (Oryza sativa); 62 g ai/ha): 0 | Plant response rating, Rice (rice (Oryza sativa); 125 g ai/ha): 25 | Plant response rating, Rice (rice (Oryza sativa); 250 g ai/ha): 25 | Plant response rating, Ducksalad ([17]; 31 g ai/ha): 0 | Plant response rating, Ducksalad ([17]; 62 g ai/ha): 0 | Plant response rating, Ducksalad ([17]; 125 g ai/ha): 0 | Plant response rating, Ducksalad ([17]; 250 g ai/ha): 35
